Like-named read-outs stand apart in the source and are kept apart here.
Columns and labels:
[1] = pharmacokinetics in blood after single intravenous administration of the emulsion of Ex. VI; assay type: in vivo, Sprague Dawley rats; conditions: for MRT last / half-life: Sprague-Dawley, rat; for MRT last: read-out: MRT(0-last); for Vd: terminal phase; for half-life: iv, read-out: T1/2 (converted)
Excerpt: (§1) This study was designed to assess the pharmokinetics and tissue distribution of PFOB and PFDB following a single intravenous administration of the emulsion of Ex. VI at various time intervals at dose levels of 1.8 and 3.6 g PFC/k in male and female Sprague Daley rats, aged 7-9 weeks, weight between 190-267 grams. For pharmacokinetics, 160 rats were divided into 20 groups (N=4 rats/sex/dose/time interval) and for tissue distribution, 156 rats were divided into 26 groups (n=3 rats/sex/dose/time interval). The time intervals for pharmacokinetics blood sampling were 0.083, 0.5, 1, 3, 6, 12, 36, 48, 72 and 96 hours. The time intervals for tissue sampling was predose, 24 hours, 1, 2, 4, 8, 13, 17, 21, 26, 39, 52 and 72 weeks.
Six pharmacokinetic parameters were determined following a single intravenous dose of 1.8 gPFC/kg or 3.6 g PFC/kg in both the male and female rats as shown in the tables below.

[2] = tissue distribution after single intravenous administration of the emulsion of Ex. VI, GC headspace; assay type: in vivo, Sprague Dawley rats
Excerpt: as §1
26 groups (N=3 rats/sex/group). Prior to euthanasia, body weights were recorded. At designated times (see below), rats were anesthetized with METOFANE® and esanguinated via the abdominal artery. Blood was collected into syringes containing EDTA and transferred into sealed plastic containers for storage at approximately −20° C. until analyzed. Resultant data were included in the determination of pharmacokinetic parameters. The following tissues were collected from each rat and placed in sealed containers and stored frozen at −20° C. Prior to freezing, blood and tissue samples were processed for analysis. PFOB and PFDB were quantified in blood and tissues using a GC headspace method validated by Oread. The method was validated in the liver and then cross validated to all other tissues, blood, and serum. The tissues collected and analyzed include heart, lungs, abdominal fat, spleen, liver, mesenteric lymph nodes, kidneys, adrenals, testes, ovaries, uterus, whole brain, eyes, skeletal muscle, femoral bone marrow, and gastrointestinal tract.
The concentration of PFOB and PFDB was determined in the tissues in both sexes at 12 time points. For the males, this was a total of 360 individual results including blood. There were 24 additional results for the female.

[3] = Phase 1 pharmacokinetics in healthy human volunteers; assay type: in vivo; conditions: for AUC(0-t) / half-life / Cmax: human, blood; for AUC(0-t) / half-life: intravenous; for AUC(0-t): read-out: AUC (0-336); for half-life: read-out: t1/2. 12 h (initial elimination half-life within the first 12 h post dose) (converted); for Cmax: iv, healthy volunteers
Description: Two randomised, controlled, double-blind, parallel group, Phase 1 studies were conducted in healthy human patients with the fluorocarbon emulsion made according to Example VI. Blood and expired air samples were analysed for PFOB and PFDB after a single intravenous dose of 1.2 or 1.8 g PFC/kg of the fluorocarbon emulsion of Example VI in healthy human volunteers to determine pharmacokinetics. Blood samples were collected up to 336 hours post-dosing.

[4] = pharmacokinetics in subjects undergoing noncardiac surgical procedures; assay type: in vivo, human; conditions: human, whole blood, noncardiac surgery; for clearance: read-out: CL (whole blood clearance) (converted); for Cmax: read-out: Cmax (maximum whole blood concentration); for half-life: read-out: T1/2 (elimination half-life) (converted)
Description: The pharmacokinetics of PFOB and PFDB were determined after the administration of the fluorocarbon emulsion of Example VI to subjects undergoing total hip replacement or spinal surgery or a variety of urologic and gynaecologic procedures including radical retropubic prostatectomy, radical hysterectomy, cystectomy and combined procedures. Human subjects in one study received either 0.9 g PFC/kg or 1.8 g PFC/kg of the fluorocarbon formulation of Example VI and those in a second study received 1.8 g PFC/kg of the fluorocarbon formulation of Example VI.

[5] = pharmacokinetics in subjects undergoing CABG surgery with hypothermic CPB; assay type: in vivo, human; conditions: human, whole blood, other: directly into the bypass oxygenator, 2.7 g PFC/kg
Description: The pharmacokinetics of PFOB and PFDB were determined after the administration of the fluorocarbon formulation taught in Example VI to human subjects undergoing coronary artery bypass grafting or CABG surgery with hypothermic cardiopulmonary bypass. In group 1 and in group 2, human subjects received the fluorocarbon emulsion (2.7 g PFC/kg) as taught in Example VI directly into the bypass oxygenator after being put on bypass but before cooling was begun. In group 4, subjects received 2.7 g PFC/kg of the fluorocarbon emulsion of Example VI directly into the bypass oxygenator either prior to aortic cannulation or after being put on bypass, but before cooling was begun.

[6] = in vivo; cited from earlier work
[7] = female rats, 1.8 g PFC/kg single iv, blood
[8] = female rats, 3.6 g PFC/kg single iv, blood
[9] = male rats, 1.8 g PFC/kg single iv, blood
[10] = male rats, 3.6 g PFC/kg single iv, blood
[11] = female rats, 1.8 g PFC/kg, 24 hours
[12] = female rats, 3.6 g PFC/kg, 24 hours
[13] = male rats, 1.8 g PFC/kg, 24 hours
[14] = 1.2 g PFC/kg, Table VII, 1.2 g PFC/kg
[15] = 1.2 g PFC/kg, Table VIII, 1.2 g PFC/kg
[16] = 1.8 g PFC/kg, Table VII, 1.8 g PFC/kg
[17] = 1.8 g PFC/kg, Table VIII, 1.8 g PFC/kg

- MRT last ([1]; 1.8 g/kg, female rats, 1.8 g PFC/kg single iv, blood): 113 h
- MRT last ([1]; 1.8 g/kg, male rats, 1.8 g PFC/kg single iv, blood): 332 h
- MRT last ([1]; 3.6 g/kg, female rats, 3.6 g PFC/kg single iv, blood): 438 h
- MRT last ([1]; 3.6 g/kg, male rats, 3.6 g PFC/kg single iv, blood): 485 h
- AUC(o-last) [1, 7]: 6.86 mg·h/g
- AUC(o-∞) [1, 7]: 7.54 mg·h/g
- Cl [1, 7]: 238.76 g/h/kg
- T1/2 ([1]; female rats, 1.8 g PFC/kg single iv, blood, last 3 or 4 data points): 199.851 days
- Vd ([1]; female rats, 1.8 g PFC/kg single iv): 1652163 g/kg
- AUC(o-last) [1, 8]: 21.99 mg·h/g
- AUC(o-∞) [1, 8]: 22.87 mg·h/g
- Cl [1, 8]: 157.39 g/h/kg
- Vd ([1]; female rats, 3.6 g PFC/kg single iv): 1728719 g/kg
- half-life ([1]; female, blood, 1.8 g/kg, female rats, 1.8 g PFC/kg single iv, blood, last 3 or 4 data points): ~200 days
- half-life ([1]; female, blood, 3.6 g/kg, female rats, 3.6 g PFC/kg single iv, blood, last 3 or 4 data points): ~317 days
- AUC(o-last) [1, 9]: 6.88 mg·h/g
- AUC(o-∞) [1, 9]: 10.65 mg·h/g
- Cl [1, 9]: 169.05 g/h/kg
- Vd ([1]; male rats, 1.8 g PFC/kg single iv): 6128576 g/kg
- AUC(o-last) [1, 10]: 24.67 mg·h/g
- AUC(o-∞) [1, 10]: 27.62 mg·h/g
- Cl [1, 10]: 130.34 g/h/kg
- Vd ([1]; male rats, 3.6 g PFC/kg single iv): 2359442 g/kg
- half-life ([1]; male, blood, 1.8 g/kg, male rats, 1.8 g PFC/kg single iv, blood, last 3 or 4 data points): ~1050 days
- half-life ([1]; male, blood, 3.6 g/kg, male rats, 3.6 g PFC/kg single iv, blood, last 3 or 4 data points): ~523 days
- concentration in the spleen and liver ([2]; 24 hours, males 1.8 g PFC/kg): above 1 mg/g
- concentration at 24 h ([2]; Sprague-Dawley, rat, intravenous, 24 hr, all tissues, both sexes and both doses, read-out: absolute concentration in tissues): > 1000 ng/g
- percent of dose in liver [2, 11]: ~86%
- percent of dose in spleen [2, 11]: approximately 14%
- percent of dose in liver [2, 12]: approximately 62%
- percent of dose in spleen [2, 12]: approximately 8%
- concentration in the lymph nodes, spleen, liver and bone marrow ([2]; females 3.6 g PFC/kg): above 1 mg/g
- percent of dose in liver [2, 13]: ~85%
- percent of dose in spleen [2, 13]: approximately 15%
- percent of dose in spleen ([2]; male rats, 3.6 g PFC/kg): approximately 11%
- percent of dose in liver ([2]; male rats, 3.6 g PFC/kg, 24 hours): ~69%
- concentration in the spleen, liver, and bone marrow ([2]; males 3.6 PFC/kg): above 1 mg/g
- t1/2. 12 h (initial elimination half-life within the first 12 h post dose) ([3]; Table VIII, 1.2 g PFC/kg): 13.6 h
- AUC(0-t) [3, 14]: 6640 µg·h/mL
- half-life [3, 14]: 13.7 ± 3.6 h
- AUC(0-t) [3, 15]: 4630 µg·h/mL
- half-life [3, 15]: 7.35 h
- AUC(0-t) [3, 16]: 16300 µg·h/mL
- half-life [3, 16]: 18.7 h
- AUC(0-t) [3, 17]: 11200 µg·h/mL
- half-life [3, 17]: 12.6 h
- Cmax ([3]; 1.2 g PFC/kg, Table VII, 1.2 g PFC/kg single iv): 540 ± 125 µg/mL
- Cmax ([3]; 1.2 g PFC/kg, Table VIII, 1.2 g PFC/kg single iv): 670 ± 420 µg/mL
- Cmax ([3]; 1.8 g PFC/kg, Table VII, 1.8 g PFC/kg single iv): 978 ± 499 µg/mL
- Cmax ([3]; 1.8 g PFC/kg, Table VIII, 1.8 g PFC/kg single iv): 884 ± 196 µg/mL
- AUC(0-inf) ([4]; 0.9 g PFC/kg): 736 ± 483 µg·h/mL
- clearance ([4]; 0.9 g PFC/kg): 0.973 mL/min/kg
- Cmax ([4]; 0.9 g PFC/kg): 284 ± 92.7 µg/mL
- half-life ([4]; 0.9 g PFC/kg): 2.73 ± 1.32 h
- AUC(0-inf) ([4]; 1.8 g PFC/kg): 2950 µg·h/mL
- clearance ([4]; 1.8 g PFC/kg): 0.595 mL/min/kg
- Cmax ([4]; 1.8 g PFC/kg): 620 ± 158 µg/mL
- half-life ([4]; 1.8 g PFC/kg): 5.56 ± 4.81 h
- AUC(0-inf) [5]: 16200 µg·h/mL
- clearance ([5]; read-out: CL (whole blood clearance) (converted)): 0.113 mL/min/kg
- Cmax ([5]; read-out: Cmax (maximum whole blood concentration)): 1030 µg/mL
- half-life ([5]; read-out: T1/2 (elimination half-life) (converted)): 10.8 ± 4.46 h
SMILES: FC(F)(F)C(F)(F)C(F)(F)C(F)(F)C(F)(F)C(F)(F)C(F)(F)C(F)(F)C(F)(F)C(F)(F)Br [PFDB, perfluorodecyl bromide]
- half-life in the RES [6]: 552 h

— patent US8748497B2, “Optimized fluorocarbon emulsions for blood substitutes and other therapeutic uses” (Alliance Pharmaceutical Corp., priority 2006, dated 2014)
